{
  "source": "patent US20040185499A1",
  "about": "“Method of epitope scanning using fluorescence polarization” (priority 2003, published 2004)",
  "test_system": "antibodies to MPB70 in M. bovis positive bovine serum",
  "format": "binding",
  "settings": "pH 7.5",
  "note": "Where no end group is shown, it is not given here. The star is where a group is joined. 6FAM = O=C1OC2(c3ccc(O)cc3Oc3cc(O)ccc32)c2cc(C(=O)*)ccc21",
  "data": [
    {"sequence": "AASNNPELTTLTAAL (6FAM-AASNNPELTTLTAAL; listed as Mycobacterium bovis) [Peptide 19]", "values": [
      {"measurement": "increase in fluorescence polarization with M. bovis positive bovine serum sample", "result": "substantial increase in fluorescence polarization"}
    ]},
    {"sequence": "ASNNPELTTLTAALS (6FAM-ASNNPELTTLTAALS; listed as Mycobacterium bovis) [Peptide 20]", "values": [
      {"measurement": "increase in fluorescence polarization with M. bovis positive bovine serum sample", "result": "substantial increase in fluorescence polarization"}
    ]},
    {"sequence": "AVAASNNPELTTLTA (6FAM-AVAASNNPELTTLTA; listed as Mycobacterium bovis) [Peptide 17]", "values": [
      {"measurement": "increase in fluorescence polarization with M. bovis positive bovine serum sample", "result": "substantial increase in fluorescence polarization"}
    ]},
    {"sequence": "NNPELTTLTAALSGQ (6FAM-NNPELTTLTAALSGQ; listed as Mycobacterium bovis) [Peptide 22]", "values": [
      {"measurement": "increase in fluorescence polarization with M. bovis positive bovine serum sample", "result": "substantial increase in fluorescence polarization"}
    ]},
    {"sequence": "SNNPELTTLTAALSG (6FAM-SNNPELTTLTAALSG; listed as Mycobacterium bovis) [Peptide 21]", "values": [
      {"measurement": "increase in fluorescence polarization with M. bovis positive bovine serum sample", "result": "substantial increase in fluorescence polarization"}
    ]},
    {"sequence": "VAASNNPELTTLTAA (6FAM-VAASNNPELTTLTAA; listed as Mycobacterium bovis) [Peptide 18]", "values": [
      {"measurement": "increase in fluorescence polarization with M. bovis positive bovine serum sample", "result": "substantial increase in fluorescence polarization"}
    ]},
    {"sequence": "VAVAASNNPELTTLT (6FAM-VAVAASNNPELTTLT; listed as Mycobacterium bovis) [Peptide 16]", "values": [
      {"measurement": "increase in fluorescence polarization with M. bovis positive bovine serum sample", "result": "substantial increase in fluorescence polarization"}
    ]}
  ]
}
